What was measured:
[1] = molecular target: T1, RSV fusion (pCDNA3.1_A2_F in HEK 293T cells) (Human respiratory syncytial virus A, UniProt P03420); assay: RSV fusion assay; format: cell-based
T1 construct: expressed in transfected cells; host or cells: HEK 293T (ECACC 12022001)
Description: HEK 293T ((ECACC 12022001) cells were cultured in T75 culture flasks in Dulbecco's medium (DMEM) containing 10% Foetal Bovine serum (FBS), 50 units per mL Penicillin and 50 μg/mL Streptomycin and warmed to 37° C. prior to use. The cells were passaged by first washing briefly with 5 mL Phosphate buffered saline (PBS), followed by addition of 2 mL of Trypsin Ethylenediaminetetraacetic acid (EDTA) to detach the cells. Once cells had detached from the flask, 8 mL media was then added to and the cells dispersed via pipetting against the bottom of the flask.
The cells were counted and diluted to 3×10^5 cells/ml in fresh media. Two T75 flasks were each seeded with 15.6 mL diluted cells, cells were also subcultured at a ratio of between 1:2 and 1:10, to continue the stock. The flasks were then incubated for 24 h at 37° C. and 5% CO2.
The plasmid DNA (for pFR-Luc and pcDNA3. 1_Gal4/NFKB) to be transfected into the HEK 293T cells was first prepared in serum free media (Opti-MEM, Invitrogen), containing the transfection reagent FuGENE® 6 (Promega). Serum free media was placed in a 1.5 mL eppendorf tube then the FuGENE 6 was added into the media. The tube was vortexed for 1 s before being incubated at RT for 5 min. 7.79 ng of both pFR_luc and pCDNA3.1_A2_F plasmid DNA were added to tube 1 and 7.79 ng of pCDNA3.1_GAL4-NF-κB plasmid to tube 2. The tubes were vortexed for 1 second and then incubated at room temperature for 15 min. Each transfection mixture was then added into the media of one of the T75 flasks of 293T cells. Cells were cultured for 24h at 37° C., 5% CO2 in a humidified incubator.
Compounds were diluted (in a polypropylene round-bottomed 96 well plate) 1:3 in a twelve point dilution curve to give top [final] of either 25 μM, 3 μM, 1 μM or 500 nM. A control compound was included in every assay at a top concentration of 3 μM. Transfected cells were counted and diluted to 4×10^5 cells/mL in fresh media. 50 μL of transfection population 1 were added to all wells of the 96 well flat bottom white opaque assay plates. 100 μL diluted compound (2 rows per compound), control compound (one row) and controls (DMSO (0% inhibition, four wells), 3 μM positive control (100% inhibition, four wells) and media (transfection population 1 only, four wells) were added to the appropriate wells. 50 μL of the diluted (4×10^5 cells/mL) population 2 cells when then added to all wells, except the four wells of transfection population 1 only where an extra 50 μL of this cells population was added.
The plates were then incubated for 24 h at 37° C. and 5% CO2. After this time, 100 μL was removed from all wells and 60 μL of ONE-Glo™ (Promega) reagent, pre-equilibrated to room temperature, was added. Plates were then incubated for 3 min at room temperature before luminescence was read, using the ONE-Glo protocol, on the GloMax Explorer System (Promega) multimode reader. Analysis was carried out in Dotmatics software. All raw data were background subtracted (subtraction of mean 3 μM positive control value), before IC50 calculation.

[2] = Liver microsomal stability, dog; format: in vitro ADME; conditions: pooled liver microsomes, pH 7.4; dog liver microsomes 0.5 mg/mL; 3 μM compound; read-out: Liver Microsoinal Stability t1/2, dog
Description: Pooled liver microsomes are purchased from a reputable commercial supplier and stored at −80° C. prior to use. Microsomes (final protein concentration 0.5 mg/mL), 0.1 M phosphate buffer pH 7.4 and test compound (final substrate concentration 3 μM; final DMSO concentration 0.25%) are pre-incubated at 37° C. prior to the addition of NADPH (final concentration 1 mM) to initiate the reaction. The final incubation volume is 50 uL. A control incubation is included for each compound tested where 0.1 M phosphate buffer pH 7.4 is added instead of NADPH (minus NADPH). Two control compounds are included with each species. All incubations are performed singularly for each test compound. Each compound is incubated for 0, 5, 15, 30 and 45 min. The control (minus NADPH) is incubated for 45 min only. The reactions are stopped by transferring 20 μL of incubate to 60 μL MeOH at the appropriate time points. The termination plates are centrifuged at 2,500 rpm for 20 min at 4° C. to precipitate the protein. Following protein precipitation, the sample supernatants are combined in cassettes of up to 4 compounds, internal standard is added and samples analysed by LC-MS/MS. From a plot of In peak area ratio (compound peak area/internal standard peak area) against time, the gradient of the line is determined. Subsequently, half-life and intrinsic clearance are calculated.

[3] = molecular target: T2, CYP2B6 (Homo sapiens, UniProt P20813); assay: Cytochrome P450 inhibition CYP2B6; format: in vitro ADME; conditions: human liver microsomes
T2 construct: from tissue; host or cells: human liver microsomes
T2 sequence (P20813 1-491): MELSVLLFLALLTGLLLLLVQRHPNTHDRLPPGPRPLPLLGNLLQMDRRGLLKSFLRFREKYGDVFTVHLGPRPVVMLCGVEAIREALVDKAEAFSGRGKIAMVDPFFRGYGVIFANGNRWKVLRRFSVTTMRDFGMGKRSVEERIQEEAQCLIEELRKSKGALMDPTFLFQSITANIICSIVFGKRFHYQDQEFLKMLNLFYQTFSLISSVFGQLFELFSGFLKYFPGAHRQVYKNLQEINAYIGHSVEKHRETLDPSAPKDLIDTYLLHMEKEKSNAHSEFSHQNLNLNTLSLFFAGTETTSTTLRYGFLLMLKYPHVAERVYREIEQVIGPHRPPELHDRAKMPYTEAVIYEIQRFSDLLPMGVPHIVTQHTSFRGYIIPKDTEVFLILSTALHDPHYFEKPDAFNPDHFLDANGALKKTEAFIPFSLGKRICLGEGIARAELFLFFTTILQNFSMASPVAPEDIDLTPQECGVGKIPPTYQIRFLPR
Description: (§1) Test compound (0.1, 0.25, 1, 2.5, 10, 25 μM in DMSO; final DMSO concentration 0.3%) was incubated with human liver microsomes (0.25 mg/mL) and NADPH (1 mM) in the presence of a cytochrome P450 isoform-specific probe substrate. The metabolites were monitored by LC-MS/MS and a decrease in the formation of the metabolite compared to the vehicle control used to calculate an IC50 value (test compound concentration which produces 50% inhibition). A cytochrome P450 isoform-specific selective inhibitor was screened alongside the test compounds as a positive control.

[4] = molecular target: T3, CYP2C19 (Homo sapiens, UniProt P33261); assay: Cytochrome P450 inhibition CYP2C19; format: in vitro ADME; conditions: human liver microsomes
T3 construct: from tissue; host or cells: human liver microsomes
T3 sequence (P33261 whole entry): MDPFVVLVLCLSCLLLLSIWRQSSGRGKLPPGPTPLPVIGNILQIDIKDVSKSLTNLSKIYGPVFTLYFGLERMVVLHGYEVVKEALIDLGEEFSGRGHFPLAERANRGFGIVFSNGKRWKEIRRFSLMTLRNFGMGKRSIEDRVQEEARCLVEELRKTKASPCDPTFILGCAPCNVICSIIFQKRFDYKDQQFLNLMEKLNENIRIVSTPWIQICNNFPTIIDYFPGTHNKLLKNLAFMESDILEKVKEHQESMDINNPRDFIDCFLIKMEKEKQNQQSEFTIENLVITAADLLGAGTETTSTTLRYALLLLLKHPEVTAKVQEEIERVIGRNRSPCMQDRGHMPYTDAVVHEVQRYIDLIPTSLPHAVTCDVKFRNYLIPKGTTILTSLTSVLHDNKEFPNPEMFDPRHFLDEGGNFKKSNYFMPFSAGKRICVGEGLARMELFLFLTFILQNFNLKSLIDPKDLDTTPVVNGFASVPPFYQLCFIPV
Description: as §1

T1 sequence (P03420 26-109): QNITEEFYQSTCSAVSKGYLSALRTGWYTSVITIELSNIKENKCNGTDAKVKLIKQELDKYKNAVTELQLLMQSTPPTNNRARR
T1 sequence (P03420 137-574): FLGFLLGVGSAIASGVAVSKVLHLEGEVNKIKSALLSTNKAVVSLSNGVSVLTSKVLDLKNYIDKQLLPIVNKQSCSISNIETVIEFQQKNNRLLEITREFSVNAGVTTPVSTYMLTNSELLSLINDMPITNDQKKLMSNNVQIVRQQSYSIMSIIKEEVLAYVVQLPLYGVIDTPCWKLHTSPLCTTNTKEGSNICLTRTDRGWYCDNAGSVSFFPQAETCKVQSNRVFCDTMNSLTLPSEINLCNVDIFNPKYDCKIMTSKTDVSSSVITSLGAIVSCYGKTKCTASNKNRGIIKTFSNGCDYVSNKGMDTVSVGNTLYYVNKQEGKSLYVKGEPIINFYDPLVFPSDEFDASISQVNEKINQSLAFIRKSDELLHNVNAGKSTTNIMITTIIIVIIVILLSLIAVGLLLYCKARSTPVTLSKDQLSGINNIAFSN

Compound	IC50 [1] [nM]	half-life at 3 μM [2] [h]	IC50 [3] [nM]	IC50 [4] [nM]
CCS(=O)(=O)N1CCC(n2c(CN3C(=O)C4(CC4)c4ccc(F)cc43)nc3cc(Cl)ccc32)CC1 [Compound 35, 1′-({5-Chloro-1-[1-(ethanesulfonyl)piperidin-4-yl]-1H-1,3-benzodiazol-2-yl}methyl)-6′-fluoro-1′,2′-dihydrospiro[cyclopropane-1,3′-indole]-2′-one]	5	2.77	–	–
CS(=O)(=O)N1CCC(n2c(CN3C(=O)C4(CC4)c4ccc(F)cc43)nc3cc(Cl)ccc32)CC1 [Compound 33, 1′-{[5-Chloro-1-(1-methanesulfonylpiperidin-4-yl)-1H-1,3-benzodiazol-2-yl]methyl}-6′-fluoro-1′,2′-dihydrospiro[cyclopropane-1,3′-indole]-2′-one]	3.3	3.1	> 25000	> 25000

— US11078189B2, “Pharmaceutical compounds” (REVIRAL LIMITED, priority 2017, dated 2021)
